In the supplement of paper PMC4932681:

Assays:
[1] = test system: BT-474 Tam1; experiment: drug sensitivity score (DSS) (DSS (dimensionless)); higher = more sensitive; extreme values may be limits of the assay; settings: 4-OH-tamoxifen in medium 1 µM; 72 h
Method in brief: (§1)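 After seeding into 384-well plates with library drugs at five concentrations spanning a 10 000-fold range, breast cancer cell lines and their resistant derivatives were incubated 72 h at 37 °C. Resistant lines received medium with 1 μM of the selecting drug. CellTiter-Glo signal was read on a PHERAstar and scaled to vehicle-only and positive controls. Drug sensitivity score, relative IC50 (the curve midpoint) and top-dose inhibition came from logistic fits run in the Breeze pipeline.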

[2] = test system: BT-474 Tam2; experiment: as above; settings: 4-OH-tamoxifen in medium 1 µM; 72 h
Method in brief: as §1

[3] = test system: BT-474; experiment: as above; settings: 72 h
Method in brief: as §1

[4] = test system: MCF-7 Tam1; experiment: as above; settings: 4-OH-tamoxifen in medium 1 µM; 72 h
Method in brief: as §1

[5] = test system: MCF-7; experiment: as above; settings: 72 h
Method in brief: as §1

[6] = test system: T-47D Tam1; experiment: as above; settings: 4-OH-tamoxifen in medium 1 µM; 72 h
Method in brief: as §1

[7] = test system: T-47D Tam2; experiment: as above; settings: 4-OH-tamoxifen in medium 1 µM; 72 h
Method in brief: as §1

[8] = test system: T-47D; experiment: as above; settings: 72 h
Method in brief: as §1

[9] = test system: ZR-75-1 Tam1; experiment: as above; settings: 4-OH-tamoxifen in medium 1 µM; 72 h
Method in brief: as §1

[10] = test system: ZR-75-1 Tam2; experiment: as above; settings: 4-OH-tamoxifen in medium 1 µM; 72 h
Method in brief: as §1

[11] = test system: ZR-75-1; experiment: as above; settings: 72 h
Method in brief: as §1

[12] = test system: BT-474 Tam1; experiment: relative IC50 (midpoint of fitted logistic curve, plateau may be below 50% inhibition; CellTiter-Glo viability); higher = less potent; settings: 4-OH-tamoxifen in medium 1 µM; 72 h
Method in brief: as §1

[13] = test system: BT-474 Tam2; experiment: as above; settings: 4-OH-tamoxifen in medium 1 µM; 72 h
Method in brief: as §1

[14] = test system: BT-474; experiment: as above; settings: 72 h
Method in brief: as §1

[15] = test system: MCF-7 Tam1; experiment: as above; settings: 4-OH-tamoxifen in medium 1 µM; 72 h
Method in brief: as §1

[16] = test system: MCF-7; experiment: as above; settings: 72 h
Method in brief: as §1

[17] = test system: T-47D Tam2; experiment: as above; settings: 4-OH-tamoxifen in medium 1 µM; 72 h
Method in brief: as §1

[18] = test system: T-47D; experiment: as above; settings: 72 h
Method in brief: as §1

[19] = test system: ZR-75-1 Tam1; experiment: as above; settings: 4-OH-tamoxifen in medium 1 µM; 72 h
Method in brief: as §1

[20] = test system: ZR-75-1 Tam2; experiment: as above; settings: 4-OH-tamoxifen in medium 1 µM; 72 h
Method in brief: as §1

[21] = test system: ZR-75-1; experiment: as above; settings: 72 h
Method in brief: as §1

[22] = test system: T-47D Tam1; experiment: as above; settings: 4-OH-tamoxifen in medium 1 µM; 72 h
Method in brief: as §1

SMILES | drug sensitivity score [1] | drug sensitivity score [2] | drug sensitivity score ([3]; 4-OH-tamoxifen in medium 0 µM) | drug sensitivity score ([3]; 4-OH-tamoxifen in medium 1 µM) | drug sensitivity score [4] | drug sensitivity score ([5]; 4-OH-tamoxifen in medium 0 µM) | drug sensitivity score ([5]; 4-OH-tamoxifen in medium 1 µM) | drug sensitivity score [6] | drug sensitivity score [7] | drug sensitivity score ([8]; 4-OH-tamoxifen in medium 0 µM) | drug sensitivity score ([8]; 4-OH-tamoxifen in medium 1 µM) | drug sensitivity score [9] | drug sensitivity score [10] | drug sensitivity score ([11]; 4-OH-tamoxifen in medium 0 µM) | drug sensitivity score ([11]; 4-OH-tamoxifen in medium 1 µM) | relative IC50 [12] | relative IC50 [13] | relative IC50 ([14]; 4-OH-tamoxifen in medium 0 µM) | relative IC50 [15] | relative IC50 ([16]; 4-OH-tamoxifen in medium 0 µM) | relative IC50 [17] | relative IC50 ([18]; 4-OH-tamoxifen in medium 0 µM) | relative IC50 [19] | relative IC50 [20] | relative IC50 ([21]; 4-OH-tamoxifen in medium 1 µM) | relative IC50 ([14]; 4-OH-tamoxifen in medium 1 µM) | relative IC50 ([18]; 4-OH-tamoxifen in medium 1 µM) | relative IC50 ([21]; 4-OH-tamoxifen in medium 0 µM) | relative IC50 ([16]; 4-OH-tamoxifen in medium 1 µM) | relative IC50 [22]
CCC1(c2ccc(N)cc2)CCC(=O)NC1=O (stereo not given) [Aminoglutethimide] | 0 | 0 | 0 | 0.6 | 0 | 0 | 5.49 | 0 | 0 | 0 | 0.781 | 0 | 0 | 0 | 0 | > 10 µM | > 10 µM | > 10 µM | > 10 µM | > 10 µM | > 10 µM | > 10 µM | > 10 µM | > 10 µM | > 10 µM | – | – | – | – | –
CNC(=O)c1ccc(N2C(=S)N(c3ccc(C#N)c(C(F)(F)F)c3)C(=O)C2(C)C)cc1F [Enzalutamide (MDV 3100)] | 0 | 0.634 | 0 | 0 | 0 | 0 | 0.74 | 0 | 0 | 0 | 0 | 0 | 0 | 0 | 0 | – | – | > 10 µM | > 10 µM | > 10 µM | > 10 µM | > 10 µM | > 10 µM | > 10 µM | > 10 µM | > 10 µM | > 10 µM | > 10 µM | – | –
C/C(=C\c1csc(C)n1)[C@@H]1C[C@@H]2O[C@]2(C)CCC[C@H](C)[C@H](O)[C@@H](C)C(=O)C(C)(C)[C@@H](O)CC(=O)N1 [Ixabepilone] | 0 | 0 | 0 | 1.39 | 0 | 0.882 | 1 | 0.349 | 2.1 | 1.7 | 0.538 | 0 | 0 | 0 | 0 | > 1 µM | > 1 µM | > 1 µM | > 1 µM | – | 0.229 µM | 0.415 µM | > 1 µM | > 1 µM | > 1 µM | 0.436 µM | – | > 1 µM | – | –
CC(=O)O[C@H]1C(=O)[C@@]2(C)[C@H]([C@H](OC(=O)c3ccccc3)[C@]3(O)C[C@H](OC(=O)[C@H](O)[C@@H](NC(=O)c4ccccc4)c4ccccc4)C(C)=C1C3(C)C)[C@]1(OC(C)=O)CO[C@@H]1C[C@@H]2O [Paclitaxel] | 4.68 | 3.11 | 11.5 | 15.5 | 0 | 7.01 | 7.14 | 7.9 | 7.33 | 13 | 1.38 | 0 | 0 | 6.96 | 0 | 0.0323 µM | – | 0.00849 µM | > 1 µM | – | 0.0109 µM | 0.00591 µM | > 1 µM | > 1 µM | > 1 µM | 0.0059 µM | – | – | 0.0169 µM | –
CN1CCN(c2nc(C3=C(c4c[nH]c5ccccc45)C(=O)NC3=O)c3ccccc3n2)CC1 [Sotrastaurin] | 6.13 | 1.44 | 0 | 10.6 | 0 | 0.517 | 0 | 0 | 0 | 0 | 0 | 0 | 0 | 0 | 0 | 1.54 µM | – | > 10 µM | > 10 µM | – | > 10 µM | > 10 µM | > 10 µM | > 10 µM | > 10 µM | 0.0515 µM | > 10 µM | > 10 µM | – | –
C/C(=C\c1csc(C)n1)[C@@H]1C[C@@H]2O[C@]2(C)CCC[C@H](C)[C@H](O)[C@@H](C)C(=O)C(C)(C)[C@@H](O)CC(=O)O1 [Patupilone  (Epothilone B)] | 8.19 | 5.53 | 9.82 | 14.9 | 0 | 7.85 | 4.38 | 4.63 | 6.29 | 8.94 | 1.35 | 0 | 0 | 4.4 | 0 | 0.0118 µM | 0.0297 µM | 0.0201 µM | > 1 µM | – | 0.0147 µM | 0.00951 µM | > 1 µM | > 1 µM | > 1 µM | 0.00598 µM | 0.242 µM | – | – | –
Cn1c(Nc2ccc(C(F)(F)F)cc2)nc2cc(Oc3ccnc(-c4ncc(C(F)(F)F)[nH]4)c3)ccc21 [RAF265] | 0 | 0 | 0 | 0 | 0 | 0 | 0 | 8.26 | 0 | 0.294 | 0 | 0 | 0.002 | 0 | 0 | > 1 µM | > 1 µM | > 1 µM | > 1 µM | > 1 µM | > 1 µM | – | > 1 µM | – | > 1 µM | > 1 µM | > 1 µM | > 1 µM | > 1 µM | –
CCN1CCN(c2ccc(Nc3cc(N(C)C(=O)Nc4c(Cl)c(OC)cc(OC)c4Cl)ncn3)cc2)CC1 [NVP-BGJ398] | 6.97 | 0 | 0 | 0 | 0 | 0 | 0 | 1.07 | 0 | 0 | 0 | 0 | 0 | 0 | 0 | – | > 1 µM | > 1 µM | > 1 µM | > 1 µM | > 1 µM | > 1 µM | > 1 µM | > 1 µM | > 1 µM | > 1 µM | > 1 µM | > 1 µM | > 1 µM | –
Oc1nc(-c2ccc(C(F)(F)F)cc2)nc2c1CSCC2 [XAV-939] | 0 | 3.71 | 0 | 0 | 0 | 0 | 0.115 | 3.2 | 0 | 0 | 0 | 0 | 0.39 | 0 | 0 | > 10 µM | – | > 10 µM | > 10 µM | > 10 µM | > 10 µM | > 10 µM | > 10 µM | – | > 10 µM | > 10 µM | > 10 µM | > 10 µM | – | –
CC(=O)O[C@@]12CO[C@@H]1C[C@H](O)[C@@]1(C)C(=O)[C@H](O)C3=C(C)[C@@H](OC(=O)[C@H](O)[C@@H](NC(=O)OC(C)(C)C)c4ccccc4)C[C@@](O)([C@@H](OC(=O)c4ccccc4)[C@H]21)C3(C)C [Docetaxel] | 10 | 3.99 | 14 | 17.7 | 0 | 7.56 | 5.79 | 8.38 | 10.8 | 15.4 | 0 | 0 | 0 | 0.389 | 0 | 0.00672 µM | – | 0.00376 µM | > 1 µM | 0.00123 µM | 0.00421 µM | 0.00176 µM | > 1 µM | > 1 µM | > 1 µM | 0.00383 µM | > 1 µM | – | – | –
CC[C@H](Nc1ncnc2[nH]cnc12)c1nc2cccc(F)c2c(=O)n1-c1ccccc1 [CAL-101] | 0 | 0 | 0 | 0.147 | 0 | 2.04 | 0.584 | 0.811 | 2.66 | 0.0938 | 0.0607 | 4.88 | 5.82 | 4.36 | 4.39 | > 10 µM | > 10 µM | > 10 µM | > 10 µM | – | 1.71 µM | – | 1.14 µM | 1.33 µM | 1.21 µM | – | – | 1.21 µM | – | –
CCN(CC)CCNC(=O)c1c(C)[nH]c(/C=C2\C(=O)Nc3ccc(F)cc32)c1C | 0.118 | 0 | 0 | 1.81 | 0 | 0 | 0 | 0.199 | 0 | 0 | 0.383 | 0 | 0 | 0 | 0 | – | > 1 µM | > 1 µM | > 1 µM | > 1 µM | > 1 µM | > 1 µM | > 1 µM | > 1 µM | > 1 µM | 0.276 µM | – | > 1 µM | > 1 µM | –
Cc1c(N)nc([C@H](CC(N)=O)NC[C@H](N)C(N)=O)nc1C(=O)N[C@H](C(=O)N[C@H](C)[C@@H](O)[C@H](C)C(=O)N[C@H](C(=O)NCCc1nc(-c2nc(C(=O)NCCC[S+](C)C)cs2)cs1)[C@@H](C)O)[C@@H](OC1OC(CO)C(O)C(O)C1OC1OC(CO)C(O)C(OC(N)=O)C1O)c1cnc[nH]1 (stereo not given in full) [Bleomycin] | 0 | 0 | 0 | 0 | 0 | 0.0343 | 0.0155 | 1.38 | 0 | 0.51 | 0 | 0.117 | 0 | 0.615 | 0 | > 10 µM | > 10 µM | > 10 µM | > 10 µM | – | > 10 µM | – | – | > 10 µM | > 10 µM | > 10 µM | > 10 µM | – | – | –
Cn1cc(CNCC2CCN(c3ncc(C(=O)NO)cn3)CC2)c2ccccc21 | 21.3 | 20.9 | 17.3 | 24.5 | 1.39 | 16.4 | 15.2 | 13.5 | 8.78 | 15.4 | 21.5 | 10 | 9.02 | 9.45 | 5.44 | 0.0145 µM | 0.0149 µM | 0.0216 µM | – | 0.0254 µM | 0.0913 µM | 0.0435 µM | 0.00619 µM | 0.0203 µM | 0.03 µM | 0.00856 µM | 0.0132 µM | 0.0178 µM | 0.0347 µM | 0.0439 µM
